The values below come from patent publication US7737309B2, “Clathrate compound, method for controlling concentration of aqueous agricultural chemical active ingredient solution, and agricultural chemical formulation” (Nippon Soda Co., Ltd., priority 2004, dated 2010).

Counter-ions that a name gives are not always drawn. Like-named read-outs stand apart in the source and are kept apart here.

The conditions of data set [1]: cited from earlier work.
The nature of data set [2]: Measurement of saturated solubility. The class given is physicochemical. To be noted: for saturated solubility: after standing at 25° C. for 192 hours; for Concentration of acetamiprid: distilled water at 25° C. As for the experimental part: After weighing a fixed amount of each of the Clathrate compounds 1 to 4 obtained in Examples 1 to 4 and an acetamiprid as a control in a measuring flask, distilled water at 25° C. was added to obtain an equal volume. After stoppering and up-and-down shaking for 5 times, the measuring flask was allowed to stand in an incubator at 25° C. After up-and-down shaking for 5 times followed by sampling with the passage of time, water at 25° C. was added to obtain an equal volume again, and sampling was carried out up to 192 hours. The concentration of acetamiprid in the sampled solution was measured by HPLC and then the saturated solubility was calculated.

For another data set, the system named is striped flea beetle. Nature of the data set: Test as a seed treatment agent used in combination with a synthetic pyrethroid agent (rapeseeds). The class given is in vivo. To be noted: Treatment amount 500 g/100 kg of seeds. An excerpt:
Immediately after that, the vinyl bag was closed, and the rapeseeds were coated with the chemical by vigorously shaking for 30 seconds. These seeds were spread over a tray and then air-dried at room temperature overnight to obtain rapeseeds coated with 500 g of acetamiprid per 100 kg of seeds.
Immediately after that, the vinyl bag was closed, and the rapeseeds were coated with the chemical by vigorously shaking for 30 seconds. These seeds were spread over a tray and then air-dried at room temperature overnight to obtain rapeseeds coated with 500 g of bifenthrin and 500 g of acetamiprid per 100 kg of seeds.
The obtained seeds were seeded in a No. 2 pot containing alluvial soil and then cultivated in a greenhouse. […] 2 days after standing, the number of incidences of insect damage due to imagines of striped flea beetle of 3 plants in each experimental plot was counted.

Consider `CNC(=O)Oc1cccc2c1OC(C)(C)O2` [bendiocarb, 2,2-dimethyl-1,3-benzodioxol-4-yl-methylcarbamate.hydrochloride], for which the aqueous solubility in data set [1] (25° C.) is given as 26000 ppm.
As to `C/C(=N\C#N)N(C)Cc1ccc(Cl)nc1` [Acetamiprid, (E)-N1-[(6-chloro-3-pyridyl)methyl]-N2-cyano-N1-methylacetamidine, reference compound], the saturated solubility in data set [2] turned out to be 3807 ppm. Moreover, the Concentration of acetamiprid was 2,822 ppm in data set [2] (1 hour); 3,273 ppm in data set [2] (3 hours); 3,734 ppm in data set [2] (24 hours); 3,776 ppm in data set [2] (48 hours); 3,752 ppm in data set [2] (72 hours); 3,807 ppm in data set [2] (192 hours). The aqueous solubility in data set [1] (25° C.) is recorded as 4200 ppm.
Turning to `Cc1c(COC(=O)[C@@H]2[C@H](/C=C(\Cl)C(F)(F)F)C2(C)C)cccc1-c1ccccc1` (racemic) [Bifenthrin], in the data set on striped flea beetle, the “Insecticidal ratio % after 15 days” value is recorded as 75.4% and the “Number of incidences of insect damage/3 plants after 15 days” value was determined as 98.
In turn, `CC(=NC#N)N(C)Cc1ccc(Cl)nc1.CCO.Oc1ccc(C(c2ccc(O)cc2)C(c2ccc(O)cc2)c2ccc(O)cc2)cc1` [Clathrate compound 3] gave a saturated solubility in data set [2] of 230 ppm. Besides, the Concentration of acetamiprid in data set [2] (1 hour) was determined as 156 ppm; in data set [2] (3 hours), 156 ppm; in data set [2] (24 hours), 163 ppm; in data set [2] (48 hours) it was 179 ppm; in data set [2] (72 hours) it was 200 ppm; in data set [2] (192 hours), 230 ppm.
`CC(=NC#N)N(C)Cc1ccc(Cl)nc1.CO.Oc1ccc(C(c2ccc(O)cc2)C(c2ccc(O)cc2)c2ccc(O)cc2)cc1` [Clathrate compound 2] returned a saturated solubility in data set [2] of 238 ppm. Further, the Concentration of acetamiprid in data set [2] (1 hour) is recorded as 72 ppm; in data set [2] (3 hours) it was 79 ppm; in data set [2] (24 hours), 161 ppm; in data set [2] (48 hours), 200 ppm; in data set [2] (72 hours) it was 217 ppm; in data set [2] (192 hours), 238 ppm.
For the compound `CC(=NC#N)N(C)Cc1ccc(Cl)nc1.CC(=NC#N)N(C)Cc1ccc(Cl)nc1.Oc1ccc(C(c2ccc(O)cc2)C(c2ccc(O)cc2)c2ccc(O)cc2)cc1` [Clathrate compound 1], the saturated solubility in data set [2] is on record as 232 ppm. For the same compound, the Concentration of acetamiprid in data set [2] (1 hour) came out at 121 ppm; in data set [2] (3 hours), 134 ppm; in data set [2] (24 hours) it was 193 ppm; in data set [2] (48 hours), 210 ppm; in data set [2] (72 hours), 221 ppm; in data set [2] (192 hours), 232 ppm.
Regarding `CCSCc1ccccc1OC(=O)NC` [ethiofencarb, 2-ethylthiomethylphenylmethylcarbamate], in data set [1] (20° C.), the aqueous solubility is 1800 ppm.
As for `ClC=CCCl` [D-D, 1,3-dichloropropene], the aqueous solubility in data set [1] (temperature not given) is reported as 2000 ppm.
Regarding `CN1COCN(Cc2cnc(Cl)s2)/C1=N\[N+](=O)[O-]` [thiamethoxam], the aqueous solubility in data set [1] (25° C.) is reported as 4100 ppm.
For `CCN(Cc1ccc(Cl)nc1)/C(=C/[N+](=O)[O-])NC` [nitenpyram, (E)-N-(6-chloro-3-pyridylmethyl)-N-ethyl-N′-methyl-2-nitrovinylidenediamine], in data set [1] (temperature not given), the aqueous solubility entry is reported as “about 2000 ppm”.
As for `COP(=O)(NC(C)=O)SC` (centres unmarked) [acephate, O,S-dimethyl-N-acetylphosphoroamide thioate], in data set [1] (temperature not given), the aqueous solubility result is given as “about 650000 ppm”.
On to `CNC(=O)ON=C(C)SC` [methomyl, S-methyl-N-(methylcarbamoyloxy)thioacetimidate], for which the aqueous solubility in data set [1] (temperature not given) is on record as 58000 ppm.
